Measurements taken from US10501518B2 (priority 2013, dated 2019).
pEC50: −log10 of the molar value. Entries after “also recorded” stand apart in the source; their conditions may differ.

Columns and labels:
rPTHR-1 = target: T1, rPTHR-1 (Rattus norvegicus, UniProt P25961); test: Washout assay of cAMP response in GR-35 cells; format: cell-based; conditions: for AUC-on / AUC-washout / AUC Ratio: Table 11; for AUC-on: luminescence AUC in the 14 minutes before washout, PTH(1-34), D6, M-PTH(1-34) 0.3 nM, B5 3 nM; for AUC-washout: luminescence AUC in the 120 minutes following washout; for AUC Ratio: ratio of AUC-washout to AUC-on; for cAMP response following washout, in words: rPTHR-1-expressing cells, relative to PTH(1-34)
T1 construct: expressed in transfected cells
T1 sequence (P25961 27-591): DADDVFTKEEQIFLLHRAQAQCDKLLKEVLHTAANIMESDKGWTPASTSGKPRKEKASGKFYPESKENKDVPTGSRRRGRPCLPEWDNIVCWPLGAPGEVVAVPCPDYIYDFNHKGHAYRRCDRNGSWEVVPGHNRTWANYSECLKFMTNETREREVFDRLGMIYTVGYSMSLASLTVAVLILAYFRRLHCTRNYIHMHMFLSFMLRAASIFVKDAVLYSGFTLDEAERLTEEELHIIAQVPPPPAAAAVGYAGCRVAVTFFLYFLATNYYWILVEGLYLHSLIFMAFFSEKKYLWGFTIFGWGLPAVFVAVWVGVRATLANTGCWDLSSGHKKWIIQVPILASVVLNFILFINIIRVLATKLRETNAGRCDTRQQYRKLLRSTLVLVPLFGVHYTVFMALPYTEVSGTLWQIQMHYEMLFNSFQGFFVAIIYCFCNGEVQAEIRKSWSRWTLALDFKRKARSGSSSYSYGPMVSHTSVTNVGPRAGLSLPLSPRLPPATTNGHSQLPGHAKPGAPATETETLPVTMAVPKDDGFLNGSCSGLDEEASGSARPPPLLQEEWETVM
Description: FIGS. 11A and 11B present the results of rPTHR-1 washout experiments. Assays of cAMP accumulation were performed using HEK-293-derived cell lines stably transfected to express the luciferase-based cAMP GloSensor™-brand protein along with WT-rPTHR-1 (GR-35 cells). Data are means (±SEM) of n=3 (M-PTH) or n=5 experiments, each performed in quadruplicate. […] Ligand was applied and luminescence was recorded for 14 minutes thereafter. FIG. 11B depicts data for the accumulation of cAMP following ligand wash-out in cells expressing the rPTHR-1. The cells from FIG. 11A were removed from the plate reader at the end of the 14-min “ligand-on” phase, rinsed twice to remove unbound ligand, treated with fresh medium containing luciferin, and luminescence was again recorded for an additional 120 min of “wash-out.” Luminescence was recorded using a PerkinElmer Envision plate reader; cells were preloaded with luciferin for 30 min before ligand addition.
HEK293 cell monolayers expressing rat PTHR-1 (GR35 cells) were treated with ligand in for 14 minutes. This buffer was then discarded, and the cell monolayer was rinsed (2×). Buffer containing luciferin was introduced for 120 minutes. Luminescence response was recorded before and after washout, with luminescence readings recorded every 2 minutes. The area under the curve (AUC) for luminescence response curve was determined using GraphPad Prism. See […] for a graphs depicting the average of n=3 (M-PTH) or n=5 washout experiments. See Table 11 for a description of composite data from n=3 or 5 washout experiments.
Data were processed by using the Microsoft Excel and GraphPad Prism 4.0 software packages. Data from binding and cAMP dose-response assays were analyzed using a sigmoidal dose-response model with variable slope. Washout responses were assessed by quantifying the area under the luminescence response curve (AUC) following washout. Post-washout AUC was normalized by dividing the post-washout AUC by the pre-washout AUC. Paired data sets were statistically compared by using Student's t test (two-tailed) assuming unequal variances for the two sets.

[1] = In vivo pharmacokinetics: peptide content of mouse plasma by cAMP GloSensor assay; conditions: mice, subcutaneous injection, 20 nmol/kg
Description: (§1) Compound concentrations were determined by submitting plasma to a cAMP GloSensor assay, quantification of luminescence readout, and conversion to peptide concentration via standard curve. […] See also FIGS. 12A, 12B and 12C.
FIG. 12 B is a magnification of FIG. 12A to highlight the data from early time points. FIG. 12 C is a dose-response curve used to convert the raw luminescence time course found in FIG. 12A to the peptide concentration time course found in FIG. 3B. This curve was generated from a single assay run immediately before assessing the raw luminescence time course.
Blood was withdrawn just prior to injection (t=0) or at times thereafter. Tail vein blood was collected and treated with protease inhibitors (aprotinin, leupeptin, EDTA), centrifuged to remove blood cells, mixed with cAMP response assay buffer, and administered to GP2.3 cells. The raw luminescence readouts recorded in this assay were converted to blood peptide concentrations through use of a standard curve relating luminescence response to known peptide concentrations under identical assay conditions.

WT rat PTHR-1 = target: T2, WT rat PTHR-1 (Rattus norvegicus, UniProt P25961); test: cAMP GloSensor dose-response in GR-35 cells expressing rat PTHR-1; format: cell-based; conditions: for cAMP (rPTHR-1) Max / pEC50: Table 2; for cAMP (rPTHR-1) Max: luminescence counts per second relative to PTH(1-34); for cAMP (rPTHR-1) Max / Max: 12-16 minutes after ligand addition; for pEC50: read-out: cAMP (rPTHR-1) EC50; for Fold nM PTH(1-34) / Max: Table 7; for Fold nM PTH(1-34): EC50 relative to PTH(1-34); for Max: GR-35 cells, mean ± SEM
T2 construct: expressed in transfected cells
T2 sequence (P25961 27-591): T1 sequence (P25961 27-591)

[2] = Calcemic response in mice after subcutaneous injection; format: in vivo; conditions: 20 nmol/kg
Description: as §1
Mice (C57BL/6, male, age 9-12 weeks) were treated in accordance with the ethical guidelines adopted by Massachusetts General Hospital. […] Blood was withdrawn just prior to injection (t=0) or at times thereafter. Tail vein blood was collected and immediately used for analysis. Blood Ca^2+ concentration was measured with a Chiron Diagnostics model 634 Ca^2+/pH analyzer.

Row | AUC-on (rPTHR-1) | AUC-washout (rPTHR-1) | level / persistence in the mouse bloodstream [1] | cAMP (rPTHR-1) Max (WT rat PTHR-1) | Compound | AUC Ratio (rPTHR-1) | cAMP response following washout, in words (rPTHR-1) | pEC50 (WT rat PTHR-1) | Fold nM PTH(1-34) (WT rat PTHR-1) | Max (WT rat PTHR-1) | calcemic response (blood Ca^2+ concentration) [2]
1 | 92,000 ± 34,000 | 100,000 ± 25,000 | consistently lower than the level of B5 | 1.00 | CC[C@H](C)[C@H](NC(=O)[C@H](CCC(=O)O)NC(=O)[C@H](CO)NC(=O)[C@@H](NC(=O)[C@@H](N)CO)C(C)C)C(=O)N[C@@H](CCC(N)=O)C(=O)N[C@@H](CC(C)C)C(=O)N[C@@H](CCSC)C(=O)N[C@@H](Cc1cnc[nH]1)C(=O)N[C@@H](CC(N)=O)C(=O)N[C@@H](CC(C)C)C(=O)NCC(=O)N[C@@H](CCCCN)C(=O)N[C@@H](Cc1cnc[nH]1)C(=O)N[C@@H](CC(C)C)C(=O)N[C@@H](CC(N)=O)C(=O)N[C@@H](CO)C(=O)N[C@@H](CCSC)C(=O)N[C@@H](CCC(=O)O)C(=O)N[C@@H](CCCN=C(N)N)C(=O)N[C@H](C(=O)N[C@@H](CCC(=O)O)C(=O)N[C@@H](Cc1c[nH]c2ccccc12)C(=O)N[C@@H](CC(C)C)C(=O)N[C@@H](CCCN=C(N)N)C(=O)N[C@@H](CCCCN)C(=O)N[C@@H](CCCCN)C(=O)N[C@@H](CC(C)C)C(=O)N[C@@H](CCC(N)=O)C(=O)N[C@@H](CC(=O)O)C(=O)N[C@H](C(=O)N[C@@H](Cc1cnc[nH]1)C(=O)N[C@@H](CC(N)=O)C(=O)N[C@@H](Cc1ccccc1)C(=O)O)C(C)C)C(C)C [PTH(1-34), reference compound] | – | – | – | – | 65 ± 31 luminescence counts per second × 10−3 | transient rise in the blood concentration of Ca^2+, which peaks after about one hour
2 | 130,000 ± 50,000 | 84,000 ± 23,000 | prolonged bioavailability | 0.78 | CC[C@H](C)[C@H](NC(=O)[C@H](CCC(=O)O)NC(=O)[C@H](CO)NC(=O)[C@@H](NC(=O)[C@@H](N)CO)C(C)C)C(=O)N[C@@H](CCC(N)=O)C(=O)N[C@@H](CC(C)C)C(=O)N[C@@H](CCSC)C(=O)N[C@@H](Cc1c[nH]cn1)C(=O)N[C@@H](CC(N)=O)C(=O)N[C@@H](CC(C)C)C(=O)NCC(=O)N[C@@H](CCCCN)C(=O)N[C@@H](Cc1c[nH]cn1)C(=O)N[C@@H](CC(C)C)C(=O)N[C@@H](CC(N)=O)CC(=O)N[C@@H](CO)C(=O)N[C@@H](CCSC)C(=O)N[C@@H](CCC(=O)O)C(=O)N[C@@H](CCCNC(=N)N)CC(=O)N[C@H](C(=O)N[C@@H](CCC(=O)O)C(=O)N[C@@H](Cc1c[nH]c2ccccc12)C(=O)N[C@H](CC(=O)N[C@@H](CCCNC(=N)N)C(=O)N[C@@H](CCCCN)C(=O)N[C@@H](CCCCN)C(=O)N[C@H](CC(=O)N[C@@H](CCC(N)=O)C(=O)N[C@@H](CC(=O)O)C(=O)N[C@H](C(=O)N[C@@H](CCC(N)=O)CC(=O)N[C@@H](CC(N)=O)C(=O)N[C@@H](Cc1ccccc1)C(N)=O)C(C)C)CC(C)C)CC(C)C)C(C)C [B5] | 0.80 ± 0.16 | short-lived cAMP response | 8.84 | 3.49 | 51 ± 21 luminescence counts per second × 10−3 | more transient rise in Ca^2+ concentration relative to PTH(1-34)

Row | Compound | AUC-on (rPTHR-1) | AUC-washout (rPTHR-1) | level / persistence in the mouse bloodstream [1] | cAMP (rPTHR-1) Max (WT rat PTHR-1) | AUC Ratio (rPTHR-1) | cAMP response following washout, in words (rPTHR-1) | pEC50 (WT rat PTHR-1) | Fold nM PTH(1-34) (WT rat PTHR-1) | Max (WT rat PTHR-1) | calcemic response (blood Ca^2+ concentration) [2]
3 | CC[C@H](C)[C@H](NC(=O)[C@H](CCC(=O)O)NC(=O)[C@H](CO)NC(=O)[C@@H](NC(=O)[C@@H](N)CO)C(C)C)C(=O)N[C@@H](CCC(N)=O)C(=O)N[C@@H](CC(C)C)C(=O)N[C@@H](CCSC)C(=O)N[C@@H](Cc1cnc[nH]1)C(=O)N[C@@H](CC(N)=O)C(=O)N[C@@H](CC(C)C)C(=O)NCC(=O)N[C@@H](CCCCN)C(=O)N[C@H](CC(=O)N[C@@H](CC(C)C)C(=O)N[C@@H](CC(N)=O)C(=O)N[C@@H](CO)C(=O)N[C@@H](CCSC)CC(=O)N[C@@H](CCC(=O)O)C(=O)N[C@@H](CCCNC(=N)N)C(=O)N[C@H](C(=O)N[C@@H](CCC(=O)O)CC(=O)N[C@@H](Cc1c[nH]c2ccccc12)C(=O)N[C@@H](CC(C)C)C(=O)N[C@@H](CCCNC(=N)N)C(=O)N[C@@H](CCCCN)CC(=O)N[C@@H](CCCCN)C(=O)N[C@@H](CC(C)C)C(=O)N[C@@H](CCC(N)=O)C(=O)N[C@@H](CC(=O)O)CC(=O)N[C@H](C(=O)N[C@@H](Cc1cnc[nH]1)C(=O)N[C@@H](CC(N)=O)C(=O)N[C@H](CC(N)=O)Cc1ccccc1)C(C)C)C(C)C)Cc1c[nH]c2ccccc12 [D6] | 100,000 ± 36,000 | 130,000 ± 37,000 | persists even longer in the bloodstream than does B5; also recorded: persists much longer in the mouse bloodstream than does PTH(1-34) | 0.76 | 1.50 ± 0.35 | comparable to that of PTH(1-34) | 9.48 | 0.79 | 50 ± 15 luminescence counts per second × 10−3 | sustained, with no diminution six hours after injection
